Data set [1] has as its system Smn protein in SMA patient fibroblast cells (GM03813). Briefly: Smn protein assay in cultured cells (SMN HTRF). In kind it is cell-based, human. The following applies: SMA patient fibroblast cells, 48 hours; for EC1.5x for Smn protein expression: 7-point concentration curve, SMN HTRF, concentration producing 1.5 times Smn protein vs DMSO vehicle control; for maximum fold (Fold) increase of Smn protein: 7-point concentration data, fold relative to vehicle control. In outline: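 Smn protein abundance in treated SMA fibroblasts was measured by HTRF after 48 h compound exposure. The reported EC1.5× is the concentration producing 1.5 times vehicle Smn levels.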

The test system of data set [2] is SMN2 minigene mRNA (SMN2-A minigene) in HEK293H cells. Put plainly: SMN2 minigene mRNA splicing RT-qPCR assay in cultured cells. In kind it is cell-based, human. The following applies: Homo sapiens, HEK293-H; concentration increasing full length SMN2 mRNA 1.5-fold relative to vehicle-treated cells; HEK293H cells with SMN2-A minigene, 24 hours, 7-point concentration data; read-out: EC1.5x for production of full length SMN2 mRNA. In outline: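 Potency reflects the concentration that lifts full-length SMN2 minigene mRNA 1.5-fold above vehicle in stably transfected HEK293H cells after 24 h of treatment. Transcript abundance came from RT-qPCR as (1+E)^−Ct, normalized to GAPDH; endogenous SMN1/SMN2 are not detected.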

In the case of `CNC1CCN(c2ccc3nc(-c4ccc(OC)c(F)c4)cc(=O)n3c2)CC1` [Compound 208, 2-(3-fluoro-4-methoxyphenyl)-7-[4-(methylamino)piperidin-1-yl]-4H-pyrido[1,2-a]pyrimidin-4-one], the melting point (usually the temperature, or range, at which the solid turns liquid) was in the range of 167 to 171 °C. Besides, in data set [1], the “EC1.5x for Smn protein expression” value is “*** (an EC1.5× between >0.3 μM and ≤1 μM is indicated by three stars (***))”; the “maximum fold (Fold) increase of Smn protein” value (“maximum fold (Fold) increase” below) was “*** (a fold increase between >1.35 and ≤1.5 is indicated by three stars (***))”. Further, the EC (1.5-fold increase) in data set [2] was less than 0.1 µM.
Regarding `COc1cc(-c2cc(=O)n3cc(N4CCNCC4)ccc3n2)ccc1F` [Compound 216, 2-(4-fluoro-3-methoxyphenyl)-7-(piperazin-1-yl)-4H-pyrido[1,2-a]pyrimidin-4-one], the melting point fell in the range of 170 to 172 °C. Further, the “maximum fold (Fold) increase” value in data set [1] was “*** (a fold increase between >1.35 and ≤1.5 is indicated by three stars (***))”. Moreover, the EC (1.5-fold increase) in data set [2] was 0.3 to 1 µM.
The compound `CCc1cc(-c2cc(=O)n3cc(N4CCN[C@H](C)C4)ccc3n2)cn2cc(C)nc12` [Compound 638, 2-(8-ethyl-2-methylimidazo[1,2-a]pyridin-6-yl)-7-[(3R)-3-methylpiperazin-1-yl]-4H-pyrido[1,2-a]pyrimidin-4-one] came in with a melting point of 230 to 234 °C. In data set [1], the “EC1.5x for Smn protein expression” value is “**** (an EC1.5x≤0.3 μM is indicated by four stars (****))” and the “maximum fold (Fold) increase” value is “***** (a fold increase >1.65 is indicated by five stars (*****))”. Moreover, in data set [2], the EC (1.5-fold increase) was less than 0.1 µM.
As for `COc1ccc(-c2cc(=O)n3cc(N4C[C@H]5CNC[C@H]5C4)ccc3n2)cc1OC` [Compound 126, 2-(3,4-dimethoxyphenyl)-7-[(3aR,6aS)-hexahydropyrrolo[3,4-c]pyrrol-2(1H)-yl]-4H-pyrido[1,2-a]pyrimidin-4-one], the melting point is 286 to 290 °C. The “maximum fold (Fold) increase” value in data set [1] was “** (a fold increase between >1.2 and ≤1.35 is indicated by two stars (**))”. Further, the EC (1.5-fold increase) in data set [2] lay within 0.1 to 0.3 µM.
The compound `Cc1cc(-c2cc(=O)n3cc(C4CCNCC4)ccc3n2)cc2cn(C)nc12` [Compound 739, 2-(2,7-dimethyl-2H-indazol-5-yl)-7-(piperidin-4-yl)-4H-pyrido[1,2-a]pyrimidin-4-one] registered a melting point of 228 to 230 °C. In addition, in data set [1], the “EC1.5x for Smn protein expression” value is reported as “**** (an EC1.5x≤0.3 μM is indicated by four stars (****))” and the “maximum fold (Fold) increase” value is listed as “***** (a fold increase >1.65 is indicated by five stars (*****))”. The EC (1.5-fold increase) in data set [2] is less than 0.1 µM.
`CN1CCC(c2ccc3nc(-c4ccc5nn(C)cc5c4)cc(=O)n3n2)CC1` [Compound 522, 2-(2-methyl-2H-indazol-5-yl)-7-(1-methylpiperidin-4-yl)-4H-pyrimido[1,2-b]pyridazin-4-one] registered a melting point of 260 to 262 °C. Besides, in data set [1], the “EC1.5x for Smn protein expression” value is “*** (an EC1.5× between >0.3 μM and ≤1 μM is indicated by three stars (***))”; the “maximum fold (Fold) increase” value was “***** (a fold increase >1.65 is indicated by five stars (*****))”. In addition, the EC (1.5-fold increase) in data set [2] was less than 0.1 µM.
As to `COc1ccc(-c2ccc3nc(C4=CCNCC4)cc(=O)n3c2)cc1F` [Cpd 294, 7-(3-fluoro-4-methoxyphenyl)-2-(1,2,3,6-tetrahydropyridin-4-yl)-4H-pyrido[1,2-a]pyrimidin-4-one], the melting point was 188 to 192 °C. Besides, in data set [1], the “EC1.5x for Smn protein expression” value was “* (An EC1.5× for Smn protein expression between >3 μM and ≤10 μM is indicated by one star (*))”; the “maximum fold (Fold) increase” value is “*** (a fold increase between >1.35 and ≤1.5 is indicated by three stars (***))”. In data set [2], the EC (1.5-fold increase) is less than 0.1 µM.
`CCN1CC=C(c2ccc3nc(-c4ccc5nn(C)cc5c4)cc(=O)n3c2)CC1` [Compound 477, 7-(1-ethyl-1,2,3,6-tetrahydropyridin-4-yl)-2-(2-methyl-2H-indazol-5-yl)-4H-pyrido[1,2-a]pyrimidin-4-one] gave a melting point of 198 to 200 °C. In data set [1], the “EC1.5x for Smn protein expression” value is “**** (an EC1.5x≤0.3 μM is indicated by four stars (****))”; the “maximum fold (Fold) increase” value was “**** (a fold increase between >1.5 and ≤1.65 is indicated by four stars (****))”. Further, the EC (1.5-fold increase) in data set [2] was less than 0.1 µM.
`COc1ccc(-c2cc(=O)n3cc(C4=CCN(C5CCC5)CC4)cc(C)c3n2)cc1OC` [Compound 379, 7-(1-cyclobutyl-1,2,3,6-tetrahydropyridin-4-yl)-2-(3,4-dimethoxyphenyl)-9-methyl-4H-pyrido[1,2-a]pyrimidin-4-one]: the melting point was in the range of 167 to 178 °C. For the same compound, the “maximum fold (Fold) increase” value in data set [1] was “*** (a fold increase between >1.35 and ≤1.5 is indicated by three stars (***))”. For the same compound, in data set [2], the EC (1.5-fold increase) is 0.1 to 0.3 µM.
Take `O=c1cc(-c2cccnc2)nc2ccc(N3CCNCC3)cn12` [Compound 228, 7-(piperazin-1-yl)-2-(pyridin-3-yl)-4H-pyrido[1,2-a]pyrimidin-4-one]: the melting point lay in the range of 175 to 178 °C. The “maximum fold (Fold) increase” value in data set [1] is “** (a fold increase between >1.2 and ≤1.35 is indicated by two stars (**))”. The EC (1.5-fold increase) in data set [2] is 1 to 3 µM.
On to `COc1ccc(-c2cc(=O)n3cc(N(C)[C@@H]4CCNC4)ccc3n2)cc1F` [Compound 233, 2-(3-fluoro-4-methoxyphenyl)-7-{methyl[(3R)-pyrrolidin-3-yl]amino}-4H-pyrido[1,2-a]pyrimidin-4-one], for which the melting point lay within 143 to 147 °C. In addition, the “maximum fold (Fold) increase” value in data set [1] is on record as “* (A maximum fold increase of ≤1.2 is indicated by one star (*))”. In addition, the EC (1.5-fold increase) in data set [2] lay in the range of 0.3 to 1 µM.
On to `CN1CCN(c2ccc3nc(-c4ccc5c(c4)OCO5)cc(=O)n3c2)CC1` [Compound 19, 2-(1,3-benzodioxol-5-yl)-7-(4-methylpiperazin-1-yl)-4H-pyrido[1,2-a]pyrimidin-4-one], for which the melting point was 235 to 237 °C. Also, the “maximum fold (Fold) increase” value in data set [1] is “** (a fold increase between >1.2 and ≤1.35 is indicated by two stars (**))”. The EC (1.5-fold increase) in data set [2] was in the range of 1 to 3 µM.
For the compound `Cn1cc2cc(-c3cc(=O)n4cc(C5CCNCC5)ccc4n3)ccc2n1` [Compound 606, 2-(2-methyl-2H-indazol-5-yl)-7-(piperidin-4-yl)-4H-pyrido[1,2-a]pyrimidin-4-one], the melting point was in the range of 194 to 196 °C. Further, in data set [1], the “EC1.5x for Smn protein expression” value was “** (an EC1.5× between >1 μM and ≤3 μM is indicated by two stars (**))”; the “maximum fold (Fold) increase” value is “**** (a fold increase between >1.5 and ≤1.65 is indicated by four stars (****))”. Besides, the EC (1.5-fold increase) in data set [2] was less than 0.1 µM.
Compound `CCc1nc(C)cn2nc(-c3cc(=O)n4cc(N5CCN(C6CCC6)[C@H](C)C5)ccc4n3)cc12` [Compound 645, 7-[(3R)-4-cyclobutyl-3-methylpiperazin-1-yl]-2-(4-ethyl-6-methylpyrazolo[1,5-a]pyrazin-2-yl)-4H-pyrido[1,2-a]pyrimidin-4-one] displayed a melting point of 261 to 264 °C. Besides, in data set [1], the “EC1.5x for Smn protein expression” value is reported as “**** (an EC1.5x≤0.3 μM is indicated by four stars (****))” and the “maximum fold (Fold) increase” value is on record as “***** (a fold increase >1.65 is indicated by five stars (*****))”. For the same compound, the EC (1.5-fold increase) in data set [2] was less than 0.1 µM.
The compound `Cc1cc(-c2cc(=O)n3cc(C4CCNCC4)ccc3n2)cc2cnn(C)c12` [Compound 775, 2-(1,7-dimethyl-1H-indazol-5-yl)-7-(piperidin-4-yl)-4H-pyrido[1,2-a]pyrimidin-4-one] displayed a melting point of 220 to 222 °C. Further, the “maximum fold (Fold) increase” value in data set [1] was “*** (a fold increase between >1.35 and ≤1.5 is indicated by three stars (***))”. Besides, the EC (1.5-fold increase) in data set [2] is 0.3 to 1 µM.
`Cc1cn2nc(-c3cc(=O)n4cc(N5CCC(NC(C)C)CC5)cc(C)c4n3)cc2c(C)n1` [Compound 611, 2-(4,6-dimethylpyrazolo[1,5-a]pyrazin-2-yl)-9-methyl-7-[4-(propan-2-ylamino)piperidin-1-yl]-4H-pyrido[1,2-a]pyrimidin-4-one] returned a melting point of 215 to 225 °C. For the same compound, the “maximum fold (Fold) increase” value in data set [1] is “*** (a fold increase between >1.35 and ≤1.5 is indicated by three stars (***))”. In addition, the EC (1.5-fold increase) in data set [2] fell in the range of 0.3 to 1 µM.
The compound `Cc1nc2ccc(-c3cc(=O)n4cc(C5=CCN(C)CC5)ccc4n3)cc2s1` [Compound 392, 2-(2-methyl-1,3-benzothiazol-6-yl)-7-(1-methyl-1,2,3,6-tetrahydropyridin-4-yl)-4H-pyrido[1,2-a]pyrimidin-4-one] showed a melting point of 170 to 172 °C. Besides, the “maximum fold (Fold) increase” value in data set [1] was “*** (a fold increase between >1.35 and ≤1.5 is indicated by three stars (***))”. The EC (1.5-fold increase) in data set [2] lay in the range of 0.1 to 0.3 µM.
On to `Cc1nc2ccc(-c3cc(=O)n4cc(C5=CCN(CCO)CC5)ccc4n3)cc2s1` [Compound 393, 7-[1-(2-hydroxyethyl)-1,2,3,6-tetrahydropyridin-4-yl]-2-(2-methyl-1,3-benzothiazol-6-yl)-4H-pyrido[1,2-a]pyrimidin-4-one], for which the melting point was in the range of 178 to 180 °C. Further, in data set [1], the “EC1.5x for Smn protein expression” value is “*** (an EC1.5× between >0.3 μM and ≤1 μM is indicated by three stars (***))”; the “maximum fold (Fold) increase” value was “*** (a fold increase between >1.35 and ≤1.5 is indicated by three stars (***))”. Also, the EC (1.5-fold increase) in data set [2] was less than 0.1 µM.

For the origin of these results see US11753407B2, “Compounds for treating spinal muscular atrophy” (PTC Therapeutics, Inc., priority 2012, dated 2023).
